The text below walks through data of PubChem BioAssay AID328 (DTP/NCI, 2004).

This experiment deals with BDF1 mice, P388 leukemia ip, median survival T/C. The experiment in a line: NCI In Vivo Anticancer Drug Screen. Data for tumor model P388 Leukemia (intraperitoneal) in B6D2F1 (BDF1) mice. To be noted: endpoint: median survival time, higher = longer survival. Summed up:
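Each value expresses how treatment altered survival: treated-mouse outcome over vehicle-mouse outcome, both groups bearing the transplanted tumour.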

The mark [1] stands for this setting: dose: 100.0 mg/kg/injection, schedule: Q01DX009 (ip), vehicle: saline with Tween-80.
Setting [2] is: dose: 100.0 mg/kg/injection, schedule: Q04DX003 (ip), vehicle: saline with Tween-80.
The mark [3] stands for this setting: dose: 200.0 mg/kg/injection, schedule: Q01DX009 (ip), vehicle: saline with Tween-80.
The mark [4] stands for this setting: dose: 200.0 mg/kg/injection, schedule: Q04DX003 (ip), vehicle: saline with Tween-80.
[5] abbreviates: dose: 400.0 mg/kg/injection, schedule: Q04DX003 (ip), vehicle: saline with Tween-80.
[6] abbreviates: dose: 25.0 mg/kg/injection, schedule: Q01DX009 (ip), vehicle: saline.
[7] abbreviates: dose: 100.0 mg/kg/injection, schedule: Q01DX009 (ip), vehicle: saline.
[8] abbreviates: dose: 200.0 mg/kg/injection, schedule: Q01DX009 (ip), vehicle: saline.
Where [9] appears, read: dose: 3.12 mg/kg/injection, schedule: Q01DX009 (ip), vehicle: saline with Tween-80.
Setting [10] is: dose: 6.25 mg/kg/injection, schedule: Q01DX009 (ip), vehicle: saline with Tween-80.
The mark [11] stands for this setting: dose: 12.5 mg/kg/injection, schedule: Q01DX009 (ip), vehicle: saline with Tween-80.

Values joined by “and” are separate entries in the source; they are usually repeats but may differ in a detail not shown here. Equal values may be shown once. Inconclusive results and toxic doses are left out.

As for `Cc1c[nH]c2nccnc12`, the T/C (dose: 1.56 mg/kg/injection, schedule: Q01DX009 (ip), vehicle: water) was 103 % of control; the T/C (dose: 3.12 mg/kg/injection, schedule: Q01DX009 (ip), vehicle: water) was 94 % of control and 105 % of control; the T/C (dose: 6.25 mg/kg/injection, schedule: Q01DX009 (ip), vehicle: water) was 93 % of control and 94 % of control and 101 % of control; the T/C (dose: 12.5 mg/kg/injection, schedule: Q01DX009 (ip), vehicle: water) was 91 % of control and 106 % of control; the T/C (dose: 50.0 mg/kg/injection, schedule: Q01DX009 (ip), vehicle: water) was 90 % of control and 99 % of control; the T/C (dose: 50.0 mg/kg/injection, schedule: Q04DX003 (ip), vehicle: water) is 94 % of control. The T/C by setting is: (dose: 100.0 mg/kg/injection, schedule: Q01DX009 (ip), vehicle: water) 89 % of control and 106 % of control; (dose: 100.0 mg/kg/injection, schedule: Q04DX003 (ip), vehicle: water) 94 % of control; (dose: 200.0 mg/kg/injection, schedule: Q01DX009 (ip), vehicle: water) 108 % of control; (dose: 200.0 mg/kg/injection, schedule: Q04DX003 (ip), vehicle: water) 103 % of control; (dose: 400.0 mg/kg/injection, schedule: Q01DX009 (ip), vehicle: water) 99 % of control; (dose: 400.0 mg/kg/injection, schedule: Q04DX003 (ip), vehicle: water) 92 % of control.
On to `COc1cc2cc(c1Cl)N(C)C(=O)C[C@H](OC(=O)CBr)[C@]1(C)O[C@@H]1[C@H](C)[C@@H]1C[C@@](O)(NC(=O)O1)[C@H](OC)C=C/C=C(\C)C2`, for which the T/C was 153 % of control (dose: 0.8 micrograms/kg/injection, schedule: Q01DX009 (ip), vehicle: saline + alcohol); 170 % of control (dose: 1.5 micrograms/kg/injection, schedule: Q01DX009 (ip), vehicle: saline + alcohol); 180 % of control (dose: 3.1 micrograms/kg/injection, schedule: Q01DX009 (ip), vehicle: saline + alcohol); 183 % of control (dose: 6.2 micrograms/kg/injection, schedule: Q01DX009 (ip), vehicle: saline + alcohol); 153 % of control and 200 % of control (dose: 12.5 micrograms/kg/injection, schedule: Q01DX009 (ip), vehicle: saline + alcohol); 162 % of control and 210 % of control (dose: 25.0 micrograms/kg/injection, schedule: Q01DX009 (ip), vehicle: saline + alcohol). For the same molecule, the T/C was 189 % of control and 210 % of control (dose: 50.0 micrograms/kg/injection, schedule: Q01DX009 (ip), vehicle: saline + alcohol); 232 % of control and 120 % of control (dose: 100.0 micrograms/kg/injection, schedule: Q01DX009 (ip), vehicle: saline + alcohol).
On to `Cc1cc(=O)[nH]c(N(CCO)CCO)n1`, for which the T/C under setting [1] was 100 % of control; the T/C under setting [2] is 100 % of control; the T/C under setting [3] is 96 % of control; the T/C under setting [4] was 95 % of control; the T/C (dose: 400.0 mg/kg/injection, schedule: Q01DX009 (ip), vehicle: saline with Tween-80) is 88 % of control; the T/C under setting [5] is 90 % of control.
With `CC(=O)OC1OC(COC(c2ccccc2)(c2ccccc2)c2ccccc2)C(OCc2ccccc2)C(OCc2ccccc2)C1OC(C)=O` (stereo not given), the T/C by setting is: (dose: 21.9 mg/kg/injection, schedule: Q01DX009 (ip), vehicle: other) 95 % of control; (dose: 43.8 mg/kg/injection, schedule: Q01DX009 (ip), vehicle: other) 98 % of control; (dose: 87.5 mg/kg/injection, schedule: Q01DX009 (ip), vehicle: other) 93 % of control; (dose: 175.0 mg/kg/injection, schedule: Q01DX009 (ip), vehicle: other) 88 % of control; (dose: 350.0 mg/kg/injection, schedule: Q01DX009 (ip), vehicle: other) 88 % of control.
Turning to `C=CC[n+]1ccc(/C=N\NC(N)=S)c2ccccc21`, the T/C is 111 % of control (dose: 6.25 mg/kg/injection, schedule: Q01DX009 (ip), vehicle: saline); 101 % of control (dose: 12.5 mg/kg/injection, schedule: Q01DX009 (ip), vehicle: saline); 106 % of control under setting [6].
For the molecule `CC(C)C[C@H](O)C(=O)O`, the T/C was 95 % of control under setting [6]; 109 % of control (dose: 44.0 mg/kg/injection, schedule: Q01DX009 (ip), vehicle: saline); 109 % of control (dose: 66.0 mg/kg/injection, schedule: Q01DX009 (ip), vehicle: saline); 95 % of control and 120 % of control under setting [7]; 118 % of control (dose: 150.0 mg/kg/injection, schedule: Q01DX009 (ip), vehicle: saline); 95 % of control under setting [8].
For `Cc1ccc(C(=O)Cl)cc1S(=O)(=O)F`, the T/C was 100 % of control (dose: 25.0 mg/kg/injection, schedule: Q01DX009 (ip), vehicle: saline with Tween-80); 101 % of control (dose: 50.0 mg/kg/injection, schedule: Q04DX003 (ip), vehicle: saline with Tween-80); 93 % of control under setting [1]; 109 % of control under setting [2]; 101 % of control under setting [4].
For `CCC(=N\NC(=S)NCCN(C)C)/C(C)=N/NC(=S)NCCN(C)C`, the T/C (dose: 0.75 mg/kg/injection, schedule: Q04DX003 (ip), vehicle: saline) is 103 % of control; the T/C (dose: 1.5 mg/kg/injection, schedule: Q04DX003 (ip), vehicle: saline) is 103 % of control; the T/C (dose: 3.0 mg/kg/injection, schedule: Q04DX003 (ip), vehicle: saline) was 97 % of control.
As to `OC(c1ccccc1)c1ccccc1CN1CCCNC1=S` (stereo not given), the T/C runs as follows: (dose: 50.0 mg/kg/injection, schedule: Q01DX009 (ip), vehicle: saline with Tween-80) 95 % of control; under setting [1], 103 % of control; under setting [3], 94 % of control.
On to `Br[CH2][Sn]([Br])([Br])[CH2]Br`, for which the T/C runs as follows: under setting [9], 111 % of control; under setting [10], 98 % of control; under setting [11], 115 % of control.
Turning to `Nc1nc2ccccc2c(=O)n1C(=O)c1ccccc1`, the T/C under setting [2] is 93 % of control, the T/C under setting [4] is 94 % of control and the T/C under setting [5] is 116 % of control.
For the molecule `CCC(CO)N1CNC(=S)NC1` (stereo not given), the T/C reads like this: (dose: 50.0 mg/kg/injection, schedule: Q01DX009 (ip), vehicle: saline) 97 % of control; under setting [7], 92 % of control; under setting [8], 108 % of control.
In the case of `CCOP(=O)(NCCCOC)OCC`, the T/C reads like this: (dose: 3.5 mg/kg/injection, schedule: Q01DX009 (ip), vehicle: saline) 105 % of control; (dose: 7.0 mg/kg/injection, schedule: Q01DX009 (ip), vehicle: saline) 120 % of control; (dose: 9.0 mg/kg/injection, schedule: Q04DX003 (ip), vehicle: saline) 122 % of control; (dose: 14.0 mg/kg/injection, schedule: Q01DX009 (ip), vehicle: saline) 115 % of control; (dose: 14.0 mg/kg/injection, schedule: Q04DX003 (ip), vehicle: saline) 104 % of control; (dose: 30.0 mg/kg/injection, schedule: Q01DX009 (ip), vehicle: saline) 88 % of control. Also, for the setting “dose: 45.0 mg/kg/injection, schedule: Q01DX009 (ip), vehicle: saline”, the T/C is 88 % of control.
As for `Cc1ccc(S(=O)(=O)N(C)SCl)cc1` (tested in a mixture with another compound), the T/C (dose: 100.0 mg/kg/injection, schedule: Q01DX009 (ip), vehicle: other) was 121 % of control.
Regarding `O=C1N(Cl)C(=O)C(c2ccc(C(F)(F)F)cc2)(c2ccc(C(F)(F)F)cc2)N1Cl`, the T/C reads like this: (dose: 1.56 mg/kg/injection, schedule: Q01DX009 (ip), vehicle: saline with Tween-80) 104 % of control; under setting [9], 100 % of control; under setting [10], 100 % of control; under setting [11], 109 % of control; under setting [2], 100 % of control; under setting [4], 109 % of control.
Turning to `Cc1c(N=Cc2ccccc2)c(=O)n(-c2ccccc2)n1C`, the T/C reads like this: (dose: 100.0 mg/kg/injection, schedule: Q01DX009 (ip), vehicle: gum acacia) 110 % of control; (dose: 100.0 mg/kg/injection, schedule: Q04DX003 (ip), vehicle: gum acacia) 88 % of control; (dose: 200.0 mg/kg/injection, schedule: Q01DX009 (ip), vehicle: gum acacia) 103 % of control; (dose: 200.0 mg/kg/injection, schedule: Q04DX003 (ip), vehicle: gum acacia) 100 % of control; (dose: 400.0 mg/kg/injection, schedule: Q01DX009 (ip), vehicle: gum acacia) 92 % of control; (dose: 400.0 mg/kg/injection, schedule: Q04DX003 (ip), vehicle: gum acacia) 92 % of control.
